# Measured values as given in patent publication US20140162942A1, “INHIBITION OF CYP3A DRUG METABOLISM” (priority 2010, published 2014).
# “Also recorded” adds a separate entry of the source. Read-outs that look alike come from different tables or passages of the source.
# Key:
# CYP3A4/5 [1] = test: CYP3A4/5 inhibition, midazolam 1′-hydroxylation in human liver microsomes (IC50 and Ki); type: in vitro ADME; conditions: for Potential for Time-Dep. Inhibition: comparison with and without 30-minute pre-incubation
# Procedure: (§1) The basis for many of the following incubation conditions is described in the following references: Madan, et al., 2002,^(1) Huang, 2004,^(3) Ogilvie, et al., 2006,^(6) Pearce, et al., 1996,^(7) Tucker, et al., 2001,^(4) and Walsky and Obach, 2004.^(5) In general, incubations were conducted at approximately 37° C. in 400-μL incubation mixtures (target pH 7.4) containing high purity water, potassium phosphate buffer (50 mM), MgCl2 (3 mM), EDTA (1 mM), an NADPH-generating system [always the mixture of the following: NADP (1 mM), glucose-6-phosphate (5 mM), glucose-6-phosphate dehydrogenase (1 Unit/mL)], and marker substrate at the final concentrations indicated. Pooled human liver microsomes (from sixteen individuals) were used as the source of enzymes (Section 1.3.1.2). The concentrations of marker substrates were based on the Km and Vmax data that were determined previously (data not shown).
# (§2) Due to the possibility that boceprevir may bind to microsomal protein or lipids, an attempt was made to design these experiments such that, in as many cases as possible, the microsomal protein, incubation time, and phosphate buffer concentration were 0.1 mg/mL, 5 minutes and 50 mM, respectively, for assays performed with human liver microsomes (Table 1). […] Since it is not imperative that the concentration of marker substrates be exactly equal to Km, the marker substrate concentrations were rounded up or down, as applicable, to simplify the experimental design (data not shown). […] Thus, the final incubation concentration of phenacetin was 60 μM (Table 1).
# (§3) The ability of boceprevir to inhibit the CYP enzymes listed in Section 1.2.1 was investigated with a pool of sixteen individual human liver microsomal samples at the concentrations indicated in Table 1. Aliquots of the stock and/or working solutions of boceprevir were manually added to buffer mixtures containing the components described in Section 1.3.21. Incubation mixtures were prepared in bulk to obviate the need for directly pipetting very small volumes (i.e., 1 μL or less). Incubations containing no boceprevir (0 μM) contained the vehicle used to dissolve boceprevir (i.e., 1% methanol).
# (§4) The Tecan liquid handling system conducted all remaining incubation steps, with the exception of the centrifugation. Aliquots of the buffer mixtures were then automatically added to 96-well plates at the appropriate locations in duplicate. Aliquots of a substrate working solution were added to the 96-well plates, prior to initiating reactions, to give the final concentrations indicated in Table 1. Reactions were initiated with the addition of an aliquot of an NADPH-generating system. Reactions were automatically terminated at approximately 5 minutes, by the addition of the appropriate internal standard (Table 5) and stop reagent; acetonitrile. Precipitated protein was removed by centrifugation (920 g for 10 minutes at 10° C.). Standards and quality control samples were similarly prepared with the addition of authentic metabolite standards.
# (§5) To examine its ability to act as a time-dependent inhibitor, boceprevir (at the same concentrations used to evaluate direct inhibition) was pre-incubated at 37±1° C., in duplicate, with human liver microsomes and an NADPH-generating system for approximately 30 minutes. This pre-incubation allowed for the generation of intermediates that could inhibit human CYP enzymes. The pre-incubations were initiated with the addition of an aliquot of an NADPH-generating system. […] Reactions were automatically terminated, at approximately 5 minutes, by the addition of the appropriate internal standard (Table 5) and stop reagent; acetonitrile. Precipitated protein was removed by centrifugation (920 g for 10 minutes at 10° C.). Incubations containing no boceprevir (0 μM) and incubations that contained boceprevir but were not pre-incubated, served as negative controls.
# CYP2C19 = molecular target: T1, CYP2C19 (Homo sapiens, UniProt P33261); test: CYP2C19 inhibition, S-mephenytoin 4′-hydroxylation in human liver microsomes; type: in vitro ADME; conditions: for Potential for Time-Dep. Inhibition: comparison with and without 30-minute pre-incubation; for inhibition at 5 min, 100 µM: human, pH 7.4, probe S-mephenytoin (4′-hydroxylation)
# T1 construct: Pooled human liver microsomes (from sixteen individuals) were used as the source of enzymes; tissue XenoTech, LLC; host or cells: human liver microsomes, pool of sixteen donors
# Procedure: as §1, §2, §3, §4, §5
# CYP3A4/5 [2] = test: NADPH dependence and effects of dilution of time-dependent inhibition of CYP3A4/5 (testosterone 6β-hydroxylation and midazolam 1′-hydroxylation); type: in vitro ADME, human; conditions: 3 μM
# T1 sequence (P33261 whole entry): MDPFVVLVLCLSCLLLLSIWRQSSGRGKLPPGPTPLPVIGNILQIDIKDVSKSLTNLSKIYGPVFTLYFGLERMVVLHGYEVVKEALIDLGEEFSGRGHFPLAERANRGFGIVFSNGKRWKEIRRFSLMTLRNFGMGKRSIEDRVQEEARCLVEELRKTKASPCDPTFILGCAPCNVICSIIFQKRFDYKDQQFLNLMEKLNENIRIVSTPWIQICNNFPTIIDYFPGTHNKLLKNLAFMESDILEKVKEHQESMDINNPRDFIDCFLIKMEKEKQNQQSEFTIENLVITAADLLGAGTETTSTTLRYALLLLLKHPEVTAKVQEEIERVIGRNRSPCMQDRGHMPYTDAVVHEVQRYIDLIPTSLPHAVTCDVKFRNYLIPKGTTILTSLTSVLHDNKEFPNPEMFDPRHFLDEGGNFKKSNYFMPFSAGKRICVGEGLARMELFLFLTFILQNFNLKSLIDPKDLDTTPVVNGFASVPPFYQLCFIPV
smiles,measurement,setting,value
"CC(C)(C)NC(=O)NC(C(=O)N1CC2C([C@H]1C(=O)NC(CC1CCC1)C(=O)C(N)=O)C2(C)C)C(C)(C)C (stereo partly drawn) [Boceprevir, (1R,2S,5S)—N-[(2Ξ)-4-amino-1-cyclobutyl-3,4-dioxobutan-2-yl]-3-{(2S)-2-[(tert-butylcarbamoyl)amino]-3,3-dimethylbutanoyl}-6,6-dimethyl-3-azabicyclo[3.1.0]hexane-2-carboxamide]",Potential for Time-Dep. Inhibition,CYP3A4/5 [1],yes^c
same,Potential for Time-Dep. Inhibition,CYP3A4/5 [1]; listed as boceprevir,caused time-dependent inhibition
same,Type of Inhibition,CYP3A4/5 [1]; direct inhibition,competitive; also recorded: competit
same,Type of Inhibition,"CYP3A4/5 [1]; direct inhibition, listed as boceprevir",competitive
same,Ki at 5 min,"CYP3A4/5 [1]; human, pooled human liver microsomes, pH 7.4, probe midazolam (1′-hydroxylation), direct inhibition",7.7 µM
same,IC50 at 5 min,"CYP3A4/5 [1]; human, pooled human liver microsomes, pH 7.4, probe midazolam (1′-hydroxylation), direct inhibition, zero-minute pre-incubation",11 µM
same,"inhibition at 5 min, 100 µM","CYP3A4/5 [1]; human, pooled human liver microsomes, pH 7.4, probe midazolam (1′-hydroxylation), direct inhibition, zero-minute pre-incubation, read-out: Max. Inhib. at 100 μM",91%
same,IC50 at 5 min,"CYP3A4/5 [1]; human, pooled human liver microsomes, pH 7.4, probe midazolam (1′-hydroxylation), time-dependent inhibition, 30-minute pre-incubation",0.97 µM
same,"inhibition at 5 min, 100 µM","CYP3A4/5 [1]; human, pooled human liver microsomes, pH 7.4, probe midazolam (1′-hydroxylation), time-dependent inhibition, 30-minute pre-incubation, read-out: Maximum Inhibition at 100 μM",99%
same,Potential for Time-Dep. Inhibition,CYP2C19,little or no
same,Potential for Time-Dep. Inhibition,CYP2C19; listed as boceprevir,no discernable time-dependent inhibition
same,IC50,"CYP2C19; direct inhibition, zero-minute pre-incubation, pooled human liver microsomes",> 100 µM
same,"inhibition at 5 min, 100 µM","CYP2C19; pooled human liver microsomes, direct inhibition, zero-minute pre-incubation, read-out: Max. Inhib. at 100 μM",25%
same,"inhibition at 5 min, 100 µM","CYP2C19; pooled human liver microsomes, time-dependent inhibition, 30-minute pre-incubation, read-out: Maximum Inhibition at 100 μM",14%
same,IC50,"CYP2C19; time-dependent inhibition, 30-minute pre-incubation",> 100 µM
same,Resistance to dilution of the increase in inhibition upon pre-incubation,CYP3A4/5 [2]; 25-fold dilution after pre-incubation,did not appear to be resistant to dilution
same,NADPH dependence of the increase in inhibition upon pre-incubation,"CYP3A4/5 [2]; pre-incubation 0, 15 and 30 minutes with and without NADPH",did require NADPH
